Patent publication US20100310591A1 (priority 2009, published 2010)

system: CD4+ T cells (CD8+ depleted donor PBMC); format: cell-based, human; conditions: not given

Substance | frequency of recognition (responding vaccine recipients / tested) | in vitro IFN-γ response (in words)
Ac-LRMK-ava-HLLSRINHFEKIQ—NH2 [Ii-Key peptide No. 121] | 9/35 | strongest in vitro IFN-γ responses
Ac-LRMK-ava-KKNSAYPTIKRSY—NH2 [Ii-Key peptide No. 170] | 9/35 | strongest in vitro IFN-γ responses
Ac-LRMK-ava-TIKRSYNNTNQED—NH2 [Ii-Key peptide No. 177] | 10/35 | strongest in vitro IFN-γ responses

system: CD4+ T cells (CD8+ depleted PBMC of rHA-responsive donors); format: cell-based, human; conditions: not given

Substance | in vitro CD4 response, fold above background | recognition frequency among donors
LRNSPQRERRRKKRGLF [BEI 57] | 4.1 fold above background | –
LVPRIATRSKVNGQSGR [BEI 39] | 3.8 fold above background | –
MEKNVTVTHAQDUKEKT [BEI 7] | 12 fold above background | –
NHFEKIQIIPKSSWSSH [BEI 22] | 4.6 fold above background | –
PLILRDCSVAGWLLGNP [BEI 12] | 3.3 fold above background | –
SNVKNLYDKVRLQLRDN [BEI 78] | 3.3 fold above background | –
STLNQRLVPRIATRSKV [BEI 38] | 13 fold above background | –
VTHAQDILEKTHNGKL [BEI 8] | 3.4 fold above background | –
WLIKKNSTYPTILRSYN [BEI 29] | 3.6 fold above background | –
YQGKSSFFRNVVWLIKK [BEI 27] | 12 fold above background | –
YQNPTTYISVGTSTLNQ [BEI 36] | – | 21%

system: MHC class II molecules; conditions: cited from earlier work

Substance | share of maximal activity of any member of the series of Ii-key peptides
LRMK (SEQ ID NO: 3) | at least 50%
